Laboratory results published in PMC11463018 (Journal of Enzyme Inhibition and Medicinal Chemistry, 2024).

How the values were obtained:
JAK2 = JAK2 (Homo sapiens, UniProt O60674); test: Kinase inhibition assay; assay type: biochemical
HDAC6 = biological target: T1, HDAC6 (Homo sapiens, UniProt Q9UBN7); test: In vitro HDAC enzyme assay; assay type: biochemical
T1 sequence (Q9UBN7 1-1215): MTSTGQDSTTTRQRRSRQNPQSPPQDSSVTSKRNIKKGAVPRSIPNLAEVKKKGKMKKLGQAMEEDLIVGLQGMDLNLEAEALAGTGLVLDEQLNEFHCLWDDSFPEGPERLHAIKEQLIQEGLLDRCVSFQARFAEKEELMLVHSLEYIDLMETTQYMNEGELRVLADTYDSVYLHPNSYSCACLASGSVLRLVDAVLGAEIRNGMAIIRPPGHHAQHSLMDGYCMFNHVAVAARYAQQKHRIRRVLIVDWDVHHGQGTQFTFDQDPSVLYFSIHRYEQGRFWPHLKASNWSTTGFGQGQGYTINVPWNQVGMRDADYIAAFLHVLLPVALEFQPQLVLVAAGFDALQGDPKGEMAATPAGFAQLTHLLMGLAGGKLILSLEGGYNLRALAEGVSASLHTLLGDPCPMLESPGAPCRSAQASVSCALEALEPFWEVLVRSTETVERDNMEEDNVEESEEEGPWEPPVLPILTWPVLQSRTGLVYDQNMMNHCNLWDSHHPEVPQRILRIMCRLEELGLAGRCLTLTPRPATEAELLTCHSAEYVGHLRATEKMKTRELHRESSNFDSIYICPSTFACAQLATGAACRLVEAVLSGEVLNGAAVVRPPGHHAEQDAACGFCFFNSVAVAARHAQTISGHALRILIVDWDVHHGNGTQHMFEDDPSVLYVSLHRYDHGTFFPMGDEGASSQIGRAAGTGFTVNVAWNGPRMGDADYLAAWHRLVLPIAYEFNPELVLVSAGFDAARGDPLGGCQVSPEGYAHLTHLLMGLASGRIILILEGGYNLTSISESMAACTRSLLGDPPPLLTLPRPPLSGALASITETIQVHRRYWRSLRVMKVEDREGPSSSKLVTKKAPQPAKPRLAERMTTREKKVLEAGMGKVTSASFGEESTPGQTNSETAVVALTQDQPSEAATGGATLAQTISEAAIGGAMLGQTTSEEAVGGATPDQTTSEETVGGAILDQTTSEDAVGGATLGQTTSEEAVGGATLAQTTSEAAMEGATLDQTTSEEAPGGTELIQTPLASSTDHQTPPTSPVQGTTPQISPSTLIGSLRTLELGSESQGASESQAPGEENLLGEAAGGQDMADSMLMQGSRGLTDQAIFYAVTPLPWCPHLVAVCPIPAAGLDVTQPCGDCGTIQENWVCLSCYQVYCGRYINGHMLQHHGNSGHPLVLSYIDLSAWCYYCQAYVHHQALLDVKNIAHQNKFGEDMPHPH

HDAC1 = HDAC1 (Homo sapiens, UniProt Q13547); test: In vitro HDAC enzyme assay; assay type: biochemical
HDAC2 = HDAC2 (Homo sapiens, UniProt Q92769); test: In vitro HDAC enzyme assay; assay type: biochemical
HDAC3 = HDAC3 (Homo sapiens, UniProt O15379); test: In vitro HDAC enzyme assay; assay type: biochemical
CCRF-CEM = test: NCI-60 screening, CCRF-CEM; assay type: cell-based; settings: Homo sapiens, read-out: GI50, CCRF-CEM
MOLT-4 = test: NCI-60 screening, MOLT-4; assay type: cell-based; settings: Homo sapiens, MOLT-4, read-out: GI50, MOLT-4
A549/ATCC = test: NCI-60 screening, A549/ATCC; assay type: cell-based; settings: Homo sapiens, A549, read-out: GI50, A549/ATCC
HCT-116 = test: NCI-60 screening, HCT-116; assay type: cell-based; settings: Homo sapiens, HCT-116, read-out: GI50, HCT-116
SNB-75 = test: NCI-60 screening, SNB-75; assay type: cell-based; settings: Homo sapiens, SNB-75, read-out: GI50, SNB-75
M14 = test: NCI-60 screening, M14; assay type: cell-based; settings: Homo sapiens, M14, read-out: GI50, M14
SK-MEL-28 = test: NCI-60 screening, SK-MEL-28; assay type: cell-based; settings: Homo sapiens, SK-MEL-28, read-out: GI50, SK-MEL-28
SK-MEL-5 = test: NCI-60 screening, SK-MEL-5; assay type: cell-based; settings: Homo sapiens, SK-MEL-5, read-out: GI50, SK-MEL-5
UACC-62 = test: NCI-60 screening, UACC-62; assay type: cell-based; settings: Homo sapiens, UACC-62, read-out: GI50, UACC-62
786-0 = test: NCI-60 screening, 786-0; assay type: cell-based; settings: Homo sapiens, 786-0, read-out: GI50, 786-0
ACHN = test: NCI-60 screening, ACHN; assay type: cell-based; settings: Homo sapiens, read-out: GI50, ACHN
MDA-MB-231/ATCC = test: NCI-60 screening, MDA-MB-231/ATCC; assay type: cell-based; settings: Homo sapiens, MDA-MB-231, read-out: GI50, MDA-MB-231/ATCC
HS 578 T = test: NCI-60 screening, HS 578 T; assay type: cell-based; settings: Homo sapiens, read-out: GI50, HS 578 T

Sequence of HDAC2 (Q92769 whole entry): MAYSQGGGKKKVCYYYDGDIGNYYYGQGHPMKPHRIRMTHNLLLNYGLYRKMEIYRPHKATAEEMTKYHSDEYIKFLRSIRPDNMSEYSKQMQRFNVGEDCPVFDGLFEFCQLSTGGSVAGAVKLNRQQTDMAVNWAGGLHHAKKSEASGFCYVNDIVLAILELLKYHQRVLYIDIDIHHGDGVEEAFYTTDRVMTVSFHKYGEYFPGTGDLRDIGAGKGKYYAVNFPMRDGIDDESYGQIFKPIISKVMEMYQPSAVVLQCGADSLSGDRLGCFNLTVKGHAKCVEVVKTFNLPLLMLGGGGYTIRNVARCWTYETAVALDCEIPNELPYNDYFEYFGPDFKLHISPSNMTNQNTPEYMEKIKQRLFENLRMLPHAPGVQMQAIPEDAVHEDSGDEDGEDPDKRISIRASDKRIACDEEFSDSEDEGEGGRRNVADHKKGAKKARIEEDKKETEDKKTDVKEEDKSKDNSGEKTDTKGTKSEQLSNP
Sequence of HDAC3 (O15379 whole entry): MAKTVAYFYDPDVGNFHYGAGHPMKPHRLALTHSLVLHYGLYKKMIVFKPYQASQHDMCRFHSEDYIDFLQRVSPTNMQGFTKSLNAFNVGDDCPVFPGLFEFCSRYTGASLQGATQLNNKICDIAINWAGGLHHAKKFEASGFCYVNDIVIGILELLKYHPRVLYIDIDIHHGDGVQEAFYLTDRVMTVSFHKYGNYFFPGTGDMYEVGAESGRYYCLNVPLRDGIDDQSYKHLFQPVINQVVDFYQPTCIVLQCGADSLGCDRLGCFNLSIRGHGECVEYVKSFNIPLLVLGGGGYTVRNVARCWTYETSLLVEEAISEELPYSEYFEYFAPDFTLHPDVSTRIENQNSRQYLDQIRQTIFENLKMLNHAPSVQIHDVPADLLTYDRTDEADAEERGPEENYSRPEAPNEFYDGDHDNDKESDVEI
Sequence of HDAC3 (Q9Y618 395-489 partner limits assumed): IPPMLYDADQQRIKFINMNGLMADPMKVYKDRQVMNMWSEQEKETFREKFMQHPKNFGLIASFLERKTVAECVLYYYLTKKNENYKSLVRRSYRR
Sequence of HDAC1 (Q13547 whole entry): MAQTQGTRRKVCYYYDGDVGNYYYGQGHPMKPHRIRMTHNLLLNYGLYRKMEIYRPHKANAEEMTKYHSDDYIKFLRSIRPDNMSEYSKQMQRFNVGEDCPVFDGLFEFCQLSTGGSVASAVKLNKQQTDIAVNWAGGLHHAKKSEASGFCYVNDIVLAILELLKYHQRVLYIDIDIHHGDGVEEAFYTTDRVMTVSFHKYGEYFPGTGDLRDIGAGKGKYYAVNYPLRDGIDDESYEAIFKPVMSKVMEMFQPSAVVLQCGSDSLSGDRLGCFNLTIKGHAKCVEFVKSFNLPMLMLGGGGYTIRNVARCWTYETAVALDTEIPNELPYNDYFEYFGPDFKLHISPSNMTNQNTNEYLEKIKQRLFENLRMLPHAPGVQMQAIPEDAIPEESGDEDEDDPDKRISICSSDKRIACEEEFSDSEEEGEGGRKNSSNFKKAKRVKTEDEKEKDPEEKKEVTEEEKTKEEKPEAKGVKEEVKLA
Sequence of JAK2 (O60674 whole entry): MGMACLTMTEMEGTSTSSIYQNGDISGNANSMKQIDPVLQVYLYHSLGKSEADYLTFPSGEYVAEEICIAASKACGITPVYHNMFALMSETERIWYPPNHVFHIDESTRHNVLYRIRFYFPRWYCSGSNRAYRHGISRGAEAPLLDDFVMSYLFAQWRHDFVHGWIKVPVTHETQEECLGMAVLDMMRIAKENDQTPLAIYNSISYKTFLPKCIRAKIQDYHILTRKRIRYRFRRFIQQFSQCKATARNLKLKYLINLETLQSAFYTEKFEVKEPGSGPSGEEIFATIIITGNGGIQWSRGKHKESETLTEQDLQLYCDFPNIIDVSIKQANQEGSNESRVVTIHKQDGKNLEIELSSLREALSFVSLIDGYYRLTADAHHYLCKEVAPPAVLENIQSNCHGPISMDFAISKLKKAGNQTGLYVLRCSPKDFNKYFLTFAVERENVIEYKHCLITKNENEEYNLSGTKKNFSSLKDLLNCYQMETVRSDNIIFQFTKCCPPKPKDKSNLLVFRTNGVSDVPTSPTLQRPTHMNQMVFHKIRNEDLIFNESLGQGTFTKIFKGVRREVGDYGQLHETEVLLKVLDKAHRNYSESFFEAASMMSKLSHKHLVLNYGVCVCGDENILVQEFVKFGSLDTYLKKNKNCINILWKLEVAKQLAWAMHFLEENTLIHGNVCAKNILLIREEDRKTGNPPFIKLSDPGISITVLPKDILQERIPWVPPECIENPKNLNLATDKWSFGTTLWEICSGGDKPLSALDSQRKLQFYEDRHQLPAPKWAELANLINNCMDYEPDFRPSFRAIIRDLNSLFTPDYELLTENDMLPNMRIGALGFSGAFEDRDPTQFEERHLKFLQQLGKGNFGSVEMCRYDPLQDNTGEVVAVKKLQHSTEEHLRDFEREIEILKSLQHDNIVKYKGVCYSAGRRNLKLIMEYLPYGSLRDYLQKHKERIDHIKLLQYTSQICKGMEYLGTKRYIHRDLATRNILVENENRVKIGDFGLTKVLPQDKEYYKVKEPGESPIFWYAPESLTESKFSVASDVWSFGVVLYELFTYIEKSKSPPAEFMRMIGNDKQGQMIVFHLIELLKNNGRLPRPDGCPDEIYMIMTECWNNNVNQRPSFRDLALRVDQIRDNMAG

With `O=C(NO)c1ccc(CNc2nc3cccc(-c4ccc5c(c4)OCO5)n3n2)cc1` [Compound 19, 4-(((5-(Benzo[d][1, 3]dioxol-5-yl)-[1,2, 4]triazolo[1,5-a]pyridin-2-yl)amino)methyl)-N-hydroxybenzamide] the IC50 (JAK2) was 278 ± 20 nM, the IC50 (HDAC6) was 4.3 ± 0.1 nM and the IC50 (HDAC1) was 25.4 ± 1.2 nM. For the same molecule, the “Fold weaker on HDAC1 than HDAC6” value (HDAC1; IC50 HDAC1 vs HDAC6) was about 6 fold, the IC50 (HDAC2) was 36.5 ± 0.95 nM and the “Fold weaker on HDAC2 than HDAC6” value (HDAC2; IC50 HDAC2 vs HDAC6) was about 8.5 fold. For the same molecule, the IC50 (HDAC3) was 83 ± 2.4 nM, the “Fold weaker on HDAC3 than HDAC6” value (HDAC3; IC50 HDAC3 vs HDAC6) was about 19 fold and the GI50 (CCRF-CEM) was 310 nM. It also gave a GI50 (MOLT-4) of 350 nM, a GI50 (A549/ATCC) of 890 nM and a GI50 (HCT-116) of 440 nM. It also gave a GI50 (SNB-75) of 350 nM, a GI50 (M14) of 550 nM and a GI50 (SK-MEL-28) of 480 nM. The GI50 (SK-MEL-5) was 550 nM, the GI50 (UACC-62) was 420 nM and the GI50 (786-0) was 1000 nM. For the same molecule, the GI50 (ACHN) was 550 nM, the GI50 (MDA-MB-231/ATCC) was 690 nM and the GI50 (HS 578 T) was 140 nM.
